Columns and labels:
phosphorylated PDK1 = phosphorylated PDK1 (Homo sapiens (Human), UniProt O15530); experiment: PDK1 kinase assay (coupled PDK1/AKT/FAM-crosstide, IMAP); assay type: biochemical; conditions: 0.5 nM phosphorylated PDK1, 24 μM ATP; read-out: Inhibition of phospo-PDK1 in vitro IC50
dephosphorylated PDK1 = dephosphorylated PDK1 (Homo sapiens (Human), UniProt O15530); experiment: as above; assay type: biochemical; conditions: 25 nM un-phosphorylated PDK1, 24 μM ATP; read-out: Inhibition of dephospo-PDK1 in vitro IC50
Method: A PDK1 kinase assay was performed as follows. PDK1 (amino acids 51-360) and AKT2 (amino acids 140-467 fused to PIFtide, amino acids […]) were expressed as N-terminally tagged GST fusion proteins in insect cells and purified to greater than 90% homogeneity. PDK1 protein was divided into two fractions, one of which was subsequently dephosphorylated. To generate dephosphorylated PDK1, the PDK1 was reacted with GST-tagged lambda-phosphatase in vitro. GST was subsequently cleaved proteolytically for both phosphorylated and dephosphorylated PDK1. Protein preparations were run on glutathione Sepharose columns to remove GST and GST-tagged lambda-phosphatase, if present. Phosphorylated PDK1 and dephosphorylated PDK1 were verified by mass-spectrometry. Enzyme activity was determined in a coupled PDK1/AKT/FAM-crosstide assay using either phosphorylated or unphosphorylated PDK1 and phosphorylation of FAM-crosstide was determined by standard IMAP protocol (Molecular Devices). For inhibition studies, compounds were titrated 3-fold in DMSO and diluted 40-fold into assay buffer (10 mM Tris HCl pH7.2; 10 mM MgCl2; 0.01% Triton X-100; 1 mM DTT) containing PDK1, AKT2, and FAM-crosstide. (final concentrations: 25 nM un-phosphorylated PDK1 or 0.5 nM phosphorylated PDK1, 30 nM unphosphorylated AKT2, and 100 nM crosstide substrate). The kinase reaction was initiated by adding ATP to a final concentration of 24 μM for both forms of PDK1 and incubated at 25° C. for 30 min. To detect assay product, the kinase reaction was combined with Progressive Binding Solution (1:600 Progressive Binding Reagent, 50% Buffer A, 50% Buffer B, Molecular Devices) in a 1:3 ratio. The mixture was incubated for 2 hours at 25° C. and the plate was scanned on an Analyst AD with excitation at 485 nm and emission at 530 nm. The fluorescence polarization value “P” is defined by the equation below. The value “mP” is generated by multiplying the P value for each reaction well by a factor of 1000. The value “ΔmP” for each well is the mP value for that well minus the mP value for the average negative control. P=(Fpar−Fperp)/(Fpar+Fperp) Eq.:
Where “par” is fluorescence intensity parallel to the excitation plane; and “perp” is fluorescence intensity perpendicular to the excitation plane. ΔmP values were plotted as a function of compound concentration and the data were analyzed with a 4-parameter fit using GraphPad Prism software.

phospho-akt (Thr308) = phospho-akt (Thr308) MSD ELISA in PC-3 cells; assay type: cell-based; conditions: Homo sapiens, PC-3, 2 h, PC-3 cells, 2 hours, no serum; read-out: Inhibition of P308 Akt in cells using MSD EC50
Method in brief: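 Read-out is MSD electrochemiluminescence after lysate capture overnight at 4 degrees and 1 hr RT detection-antibody step. Before lysis, overnight-plated PC-3 cells received three-fold serial dilutions of inhibitor in serum-free medium, with DMSO-only high controls.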

dephosphorylated PDK1, sequence (O15530 51-360): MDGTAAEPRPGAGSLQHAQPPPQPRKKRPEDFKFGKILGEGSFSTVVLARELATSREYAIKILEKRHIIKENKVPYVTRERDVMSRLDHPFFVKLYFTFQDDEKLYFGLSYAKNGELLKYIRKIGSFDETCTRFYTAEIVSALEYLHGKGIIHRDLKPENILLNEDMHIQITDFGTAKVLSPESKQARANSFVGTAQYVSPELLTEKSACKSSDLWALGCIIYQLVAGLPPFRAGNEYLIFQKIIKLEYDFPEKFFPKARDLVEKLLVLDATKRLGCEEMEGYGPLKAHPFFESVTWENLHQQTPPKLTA
phosphorylated PDK1, sequence (O15530 51-360): as above

Structure (SMILES) | IC50 (phosphorylated PDK1) | IC50 (dephosphorylated PDK1) | EC50 (phospho-akt (Thr308))
O=C(NCCOc1cc(F)c2[nH]c(=O)[nH]c2c1)c1cccn(Cc2ccc(F)c(F)c2)c1=O [Cpd 158] | 500 to 10000 nM | < 500 nM | 
O=C(NCc1nc(-c2c[nH]c3ncccc23)c[nH]1)c1cccn(Cc2ccc(F)c(F)c2)c1=O [Cpd 116] | 500 to 10000 nM | < 500 nM | 
COc1ccnc(NCCC#CCNC(=O)c2cccn(Cc3cccc(Cl)c3)c2=O)n1 [Cpd 262] | < 500 nM | < 500 nM | 
COc1ccnc(NCCCCCNC(=O)c2cc(Br)cn(Cc3cccc(F)c3)c2=O)n1 [Cpd 253] | 500 to 10000 nM | < 500 nM | 
CNC(=O)C[C@@H](NC(=O)c1cccn(Cc2ccc(F)c(F)c2)c1=O)c1ncc(-c2c[nH]c3ncccc23)o1 [Cpd 248] |  | < 500 nM | 
O=C(NCCOc1ccc2c(c1)[nH]c(=O)n2CCN1CCCC1)c1cccn(Cc2ccc(F)c(F)c2)c1=O [Cpd 130] | 500 to 10000 nM | 500 to 10000 nM | 
COc1ccnc(NCCCCCNC(=O)c2cccn(C(C)c3ccc(Cl)cc3)c2=O)n1 (stereo not shown) [Cpd 105] | 500 to 10000 nM | < 500 nM | 
Cc1sc(CNC(=O)c2cccn(Cc3ccc(F)c(F)c3)c2=O)nc1-c1c[nH]c2ncccc12 [Cpd 275] | 500 to 10000 nM | < 500 nM | 
COc1ccnc(NCCC#CCCNC(=O)c2cccn(Cc3ccc(Cl)c(Cl)c3)c2=O)n1 [Cpd 255] | < 500 nM | < 500 nM | 
O=C(NCCSc1ccc2[nH]c(=O)[nH]c2c1)c1cccn(Cc2ccc(F)c(F)c2)c1=O [Cpd 118] | 500 to 10000 nM | < 500 nM | 
COc1ccnc(NCCCCCNC(=O)c2cccn(Cc3cc(F)c(F)c(F)c3)c2=O)n1 [Cpd 267] |  | < 500 nM | 
O=C(Nc1cccc(-c2ccc3[nH]c(=O)[nH]c3c2)c1)c1cccn(Cc2ccc(F)c(F)c2)c1=O [Cpd 162] | 500 to 10000 nM | < 500 nM | 
COc1ccnc(NCCC#CCCNC(=O)c2cc(Cl)cn(C(C)c3ccc(Cl)cc3)c2=O)n1 (stereo not shown) [Cpd 106] | < 500 nM | < 500 nM | 
O=C(NCCCCc1c[nH]c2ncccc12)c1cccn(Cc2cc(F)c(F)c(F)c2)c1=O [Cpd 271] | < 500 nM | < 500 nM | 
COc1ccnc(NCCC#CCCNC(=O)c2cccn(Cc3ccc(F)c(F)c3)c2=O)n1 [Cpd 263] | < 500 nM | < 500 nM | 
O=C(NCc1cccc(-c2c[nH]c3ncc(-c4ccco4)cc23)c1)c1cccn(Cc2ccc(F)c(F)c2)c1=O [Cpd 57] | < 500 nM | < 500 nM | 
O=C(NCc1cccc(-c2cc[nH]c(=O)c2)c1)c1cccn(Cc2ccc(F)c(F)c2)c1=O [Cpd 224] |  | 500 to 10000 nM | 
C[C@@H](NC(=O)c1cccn(Cc2ccc(F)c(F)c2)c1=O)c1nc(-c2c[nH]c3ncccc23)cs1 [Cpd 114] | < 500 nM | < 500 nM | 
O=C(NCc1cccc(-c2ccc3nsnc3c2)c1)c1cccn(Cc2ccc(F)c(F)c2)c1=O [Cpd 218] | > 10000 nM | 500 to 10000 nM | 
COc1ccnc(NCCCCCNC(=O)c2cccn(Cc3ccc(F)c(F)c3)c2=O)n1 [Cpd 107] | 500 to 10000 nM | < 500 nM | 
O=C(NCc1cccc(-c2c[nH]c3ncccc23)c1)c1cccc(Nc2ccccc2)n1 [Cpd 54] | < 500 nM | < 500 nM | 
O=C(NCc1cccc(-c2cccc3[nH]ncc23)c1)c1cccn(Cc2ccc(F)c(F)c2)c1=O [Cpd 329] |  | 500 to 10000 nM | > 5000 nM
COc1ccnc(NCCC#CCCNC(=O)c2cc(F)cn(Cc3cccc(F)c3)c2=O)n1 [Cpd 258] | < 500 nM | < 500 nM | 
COc1ccnc(NCCCCCNC(=O)c2cccn(Cc3cccc(Cl)c3)c2=O)n1 [Cpd 101] | 500 to 10000 nM | 500 to 10000 nM | 
O=C1Cc2ccc(/C=C/CNC(=O)c3cc(I)cn(Cc4cc(F)c(F)c(F)c4)c3=O)cc2N1 [Cpd 178] | < 500 nM | < 500 nM | 
CNC(=O)[C@H](COc1ccc2[nH]c(=O)[nH]c2c1)NC(=O)c1cccn(Cc2cc(F)c(F)c(F)c2)c1=O [Cpd 157] | < 500 nM | < 500 nM | 

Structure (SMILES) | IC50 (phosphorylated PDK1) | IC50 (dephosphorylated PDK1) | EC50 (phospho-akt (Thr308))
O=C(NCc1cccc(-c2ccc3nonc3c2)c1)c1cccn(Cc2ccc(F)c(F)c2)c1=O [Cpd 219] | > 10000 nM | 500 to 10000 nM | 
O=C(NCc1nc(-c2c[nH]c3ncccc23)cs1)c1cc(Cl)cn(Cc2ccc(Cl)cc2)c1=O [Cpd 273] | < 500 nM | < 500 nM | 
O=C1CC(c2cccc(CNC(=O)c3cccn(Cc4ccc(F)c(F)c4)c3=O)c2)CN1 (stereo not shown) [Cpd 111] | 500 to 10000 nM | 500 to 10000 nM | 
COc1ccnc(NCCCCCNC(=O)c2cc(Cl)cn(Cc3ccc(Cl)cc3)c2=O)n1 [Cpd 252] | 500 to 10000 nM | < 500 nM | 
Nc1cnc(Nc2cccc(NC(=O)N3CCCC3)c2)nc1NCCCCCCNC(=O)c1cccn(Cc2cccc(Cl)c2)c1=O [Cpd 249] | > 10000 nM | < 500 nM | 
O=C(NCCCCCc1c[nH]c2ncccc12)c1cccn(Cc2cccc(Cl)c2)c1=O [Cpd 108] | 500 to 10000 nM | 500 to 10000 nM | 
O=C(NS(=O)(=O)c1ccc(-c2c[nH]c3ncccc23)s1)c1cccn(Cc2ccc(F)c(F)c2)c1=O [Cpd 231] | 500 to 10000 nM | 500 to 10000 nM | 
COc1ccnc(NCCCCCCNC(=O)c2cccn(Cc3cccc(F)c3)c2=O)n1 [Cpd 261] | 500 to 10000 nM | < 500 nM | 
O=C(NCCCCCNc1nc2ccccc2o1)c1cccn(Cc2cccc(Cl)c2)c1=O [Cpd 100] | > 10000 nM | 500 to 10000 nM | 
O=C(NCCOc1cc2[nH]c(=O)[nH]c2cc1F)c1cccn(Cc2ccc(F)c(F)c2)c1=O [Cpd 155] | 500 to 10000 nM | < 500 nM | 
COc1ccnc(NCC/C=C/CCNC(=O)c2cccn(Cc3cccc(Cl)c3)c2=O)n1 [Cpd 103, 1-(3,4-Difluoro-benzyl)-2-oxo-1,2-dihydro-pyridine-3-carboxylic acid 3-(4-amino-1H-pyrazolo[3,4-d]pyrimidin-3-yl)-benzylamides] | 500 to 10000 nM | < 500 nM | 
O=C(Nc1cccn(Cc2ccc(F)c(F)c2)c1=O)c1cccc(-c2c[nH]c3ncccc23)c1 [Cpd 288] |  | < 500 nM | 
O=C(N[C@H](COc1ccc2[nH]c(=O)[nH]c2c1)C1CCOC1)c1cccn(Cc2cc(F)c(F)c(F)c2)c1=O (stereo partly shown) [Cpd 185] | < 500 nM | < 500 nM | 
O=C(NCc1nnc(-c2c[nH]c3ncccc23)s1)c1cccn(Cc2ccc(F)c(F)c2)c1=O [Cpd 124] | < 500 nM | < 500 nM | 
Nc1ccc(-c2cccc(CNC(=O)c3cccn(Cc4ccc(F)c(F)c4)c3=O)c2)cn1 [Cpd 214] |  | 500 to 10000 nM | 
Cn1c(=O)[nH]c2cc(OCCNC(=O)c3cccn(Cc4ccc(F)c(F)c4)c3=O)ccc21 [Cpd 119, N-(3-(4-chloro-H-pyrrolo[2,3-b]pyridin-3-yl)benzyl)-1-(3,4-difluorobenzyl)-2-oxo-1,2-dihydropyridine-3-carboxamide] | < 500 nM | < 500 nM | 
COc1ccnc(NCCC#CCCNC(=O)c2cc(Cl)cn(Cc3ccc(Cl)cc3)c2=O)n1 [Cpd 256] | 500 to 10000 nM | < 500 nM | 
COc1ccnc(NCCCCCNC(=O)c2cccn(Cc3ccc(Cl)c(Cl)c3)c2=O)n1 [Cpd 104] | 500 to 10000 nM | < 500 nM | 
Cc1nc(CNC(=O)c2cccn(Cc3ccc(F)c(F)c3)c2=O)sc1-c1c[nH]c2ncccc12 [Cpd 115] | 500 to 10000 nM | < 500 nM | 
O=C(NCCSc1ccc2[nH]c(=O)[nH]c2c1)c1cccn(Cc2ccc(F)c(F)c2)c1=O [Cpd 117] | 500 to 10000 nM | 500 to 10000 nM | 
O=C(NCc1cccc(-c2cc(=O)[nH][nH]2)c1)c1cccn(Cc2ccc(F)c(F)c2)c1=O [Cpd 217] | > 10000 nM | 500 to 10000 nM | 
COc1ccnc(NCCCCCNC(=O)c2cccn(Cc3ccc(F)c(Cl)c3)c2=O)n1 [Cpd 266] | 500 to 10000 nM | < 500 nM | 
O=C(NCc1ncc(-c2c[nH]c3ncccc23)o1)c1cccn(Cc2ccc(F)c(F)c2)c1=O [Cpd 120] | < 500 nM | < 500 nM | 
COc1ccnc(NCCCCCNC(=O)c2cccn(C(C)c3ccc(Cl)cc3)c2=O)n1 (stereo not shown) [Cpd 254] | 500 to 10000 nM | < 500 nM | 
NC(=O)Nc1ccc(OCCNC(=O)c2cccn(Cc3ccc(F)c(F)c3)c2=O)cc1 [Cpd 122] | 500 to 10000 nM | < 500 nM | 

From patent US9873693B2 (Sunesis Pharmaceuticals, Inc., priority 2006, dated 2018)
